Measured values published in patent US20240307409A1, “ARGININE METHYLTRANSFERASE INHIBITOR AND USE THEREOF” (Cytosinlab Therapeutics Co., Ltd., priority 2021, published 2024).

Tests used:
PRMT1 = PRMT1 (Homo sapiens, UniProt Q99873); experiment: PRMT1 enzyme activity test; format: biochemical; conditions: 0.5 nM PRMT1, 3H-SAM, peptide
How it was run: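 Radiometric methylation assay: 0.5 nM PRMT1 preincubated 15 min at room temperature with compound (10-point 3-fold series, 1% DMSO) in pH 8.0 Tris buffer with Tween-20 and DTT. 0.25 uM ³H-SAM and 0.1 uM biotinylated peptide then reacted 120 min. Product captured on streptavidin FlashPlate and counted; IC50 from four-parameter fit of % inhibition.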

Toledo cells = experiment: Toledo cell proliferation inhibition assay; format: cell-based; conditions: Homo sapiens, Toledo, 144 h; six-day assay, CellTiter-Glo
How it was run: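 Toledo cells seeded at 2000 cells/well in RPMI 1640 + 10% FBS and incubated with compound for six days at 37° C, 5% CO2. Viability was then read by CellTiter-Glo luminescence after 30 min orbital mixing.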

MMA in RKO cells = experiment: RKO In Cell Western assay (MMA primary antibody); format: cell-based; conditions: Homo sapiens, 72 hours, read-out: RKO ICW_EC30
Method: RKO was seeded at a concentration of 20,000 cells/ml into a polylysine-coated 96-well plate (Corning #3599), with 2,000 cells per well and 100 μL of culture mediumper well. 500 nL of compound was added to the 96-well plate. 3) The 96-well plate was incubated in a 37° C., 5% CO2 incubator for 72 hours. After three days, the 96-well plate was taken from the incubator, 100 μL of 8% paraformaldehyde solution was added to each well, and the plate was placed at room temperature for 15 min. After 15 min, the liquid in the plate was shaken out and the plate was washed three times with phosphate buffer (1*PBS). The liquid in the plate was shaken out and 200 μL of membrane-breaking buffer (0.1% (v/v) Tween-20 in PBS) was added and the plate was incubated on a shaker for 30 min. After half an hour, the liquid in the plate was shaken out, and blocking buffer was added and the plate was incubated for two hours at room temperature with shaking. After that, the liquid in the plate was shaken off, and the blocking solution containing primary antibody (MMA primary antibody, CST #8711S, 1:1000 v/v) was added to the 96-well plate and the plate was incubated at 4° C. overnight with shaking. The next day, the plate was washed three times with washing solution (0.05% (v/v) Tween-20 in PBS), and a blocking solution containing secondary antibody (goat anti-rabbit IgG (H+L) Invitrogen #31460, 1:10,000 v/v) was added and the plate was incubated for two hours at room temperature. Afterwards, the 96-well plate was washed four times with washing solution. The TMB mixture was added to the 96-well plate and then the plate was incubated for 15 minutes at room temperature with shaking. After that, the reaction terminating solution was added, and the value was read at OD450 nm using an microplate reader. The plate was washed three times with washing solution, and 50 μL of janusgreen staining solution was added, and the plate was incubated for 15 minutes at room temperature with shaking. The reaction was washed ten times with water until no color residue was left. 200 μL of 0.5 M hydrochloric acid solution was added to each well and the plate was incubated for 10 min at room temperature. The value was read at OD595 nm using Flexstation.
Firstly, the ratio OD450/OD595 was calculated for each well
Each plate had six DMSO negative control groups (ZPE) and six 10 μM positive control groups (HPE), and the average of the control group ratios was used to determine the percentage of activation for each test well. The compounds to be tested were triple diluted with DMSO for a total of 8 concentration points with a starting concentration of 5 μM. The equation for calculating the activation percentage of each test well was: […]

Sequence of PRMT1 (Q99873 whole entry): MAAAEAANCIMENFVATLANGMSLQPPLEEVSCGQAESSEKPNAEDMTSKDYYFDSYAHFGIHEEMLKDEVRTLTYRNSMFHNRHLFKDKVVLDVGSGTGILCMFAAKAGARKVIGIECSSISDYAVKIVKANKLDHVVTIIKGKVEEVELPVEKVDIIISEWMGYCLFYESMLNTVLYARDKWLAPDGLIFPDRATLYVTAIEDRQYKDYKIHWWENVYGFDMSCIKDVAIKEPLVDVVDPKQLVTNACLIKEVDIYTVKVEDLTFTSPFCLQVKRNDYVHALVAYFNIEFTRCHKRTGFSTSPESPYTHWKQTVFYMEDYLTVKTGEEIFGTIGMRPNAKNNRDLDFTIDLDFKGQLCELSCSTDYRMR

| SMILES | IC50 (PRMT1) | IC50 (Toledo cells) | EC30 (MMA in RKO cells) |
| --- | --- | --- | --- |
| CNCCN(C)Cc1ccccc1[C@H]1CC[C@@H](OC(C)C)CC1 [P057] | < 50 nM | < 1000 nM | 250 to 2500 nM |
| CNCCN(C)Cc1ccccc1C1CCC2(CC1)CC(C)(C)CO2 (stereo not shown) [P039] | < 50 nM | < 1000 nM | 250 to 2500 nM |
| CNCCN(C)Cc1ncccc1N1CCC(Oc2cc(C)cc(C)c2)CC1 [P148] | < 50 nM | < 1000 nM | 250 to 2500 nM |
| CC[C@H]1CC[C@@H](c2ccccc2CN(C)CCNC)CC1 [P014] | < 50 nM | < 1000 nM | 250 to 2500 nM |
| CNCCN(C)Cc1ccccc1[C@H]1CC[C@]2(CCCCO2)CC1 [P051] | < 50 nM | < 1000 nM | 250 to 2500 nM |
| CNCCN(C)Cc1ncccc1C1CCN(c2cccc(OC(F)(F)F)c2)CC1 [P143] | < 50 nM | < 1000 nM | 250 to 2500 nM |
| CNCCN(C)Cc1ncccc1C1CCN(c2cccc(C(C)(C)C)c2)CC1 [P044] | < 50 nM | < 1000 nM | 250 to 2500 nM |
| CNCCN(C)Cc1ccc(-c2cn[nH]c2)cc1C1CCN(c2cccc(C)c2)CC1 [P153] | < 50 nM | < 1000 nM | < 250 nM |
| CNCCN(C)Cc1ccccc1[C@H]1CC[C@H](OC(C)C)CC1 [P056] | < 50 nM | < 1000 nM | 250 to 2500 nM |
| CNCCN(C)Cc1nc(C)ccc1C1CCN(c2cccc(C)c2)CC1 [P080] | 50 to 500 nM | < 1000 nM | 250 to 2500 nM |
| CNCCN(C)Cc1ccc(N)nc1C1CCc2cc(F)c(F)cc2CC1 [P198] | < 50 nM | < 1000 nM | < 250 nM |
| CNCCN(C)Cc1ncccc1N1CCC(Oc2cc(F)cc(C(F)(F)F)c2)CC1 [P137] | < 50 nM | < 1000 nM | 250 to 2500 nM |
| CNCCN(C)Cc1ncccc1N1CCC(COc2ccc(C(F)(F)F)cc2)CC1 [P130] | < 50 nM | < 1000 nM | 250 to 2500 nM |
| CNCCN(C)Cc1ncccc1N1CCc2cc(F)c(F)cc2CC1 [P107] | < 50 nM | < 1000 nM | 250 to 2500 nM |
| CNCCN(C)Cc1ncccc1C1CCN(c2cccc(Cl)c2)CC1 [P089] | < 50 nM | < 1000 nM | < 250 nM |
| CNCCN(C)Cc1ncccc1C1CCN(c2cccc(C(F)F)c2)CC1 [P078] | < 50 nM | < 1000 nM | < 250 nM |
| CNCCN(C)Cc1ncccc1N1CCC(COc2ccccc2)CC1 [P165] | < 50 nM | < 1000 nM | 250 to 2500 nM |
| CCOCC1(COCC)CCC(c2cnccc2CN(C)CCNC)CC1 [P206] | 50 to 500 nM | 1000 to 5000 nM | 250 to 2500 nM |
| CNCCN(C)Cc1ncccc1N1CCc2cc(F)cc(F)c2CC1 [P106] | < 50 nM | < 1000 nM | 250 to 2500 nM |
| CNCCN(C)Cc1ncccc1C1CCc2ccccc2CC1 [P075] | < 50 nM | < 1000 nM | 250 to 2500 nM |
| CNCCN(C)Cc1nc(C)ccc1N1CCc2cc(F)c(F)cc2CC1 [P093] | < 50 nM | < 1000 nM | – |

| SMILES | IC50 (PRMT1) | IC50 (Toledo cells) | EC30 (MMA in RKO cells) |
| --- | --- | --- | --- |
| CNCCN(C)Cc1ncccc1C1CCN(c2ccc(S(C)(=O)=O)cc2)CC1 [P284] | < 50 nM | 1000 to 5000 nM | – |
| CNCCN(C)Cc1ncccc1C1CCN(c2ccccc2C(N)=O)CC1 [P298] | < 50 nM | 1000 to 5000 nM | – |
| CCOCC1(COCC)CCC(c2ccncc2CN(C)CCNC)CC1 [P205] | 50 to 500 nM | 1000 to 5000 nM | – |
| CCC1(C(=O)O)CCN(c2cccnc2CN(C)CCNC)CC1 [P315] | ≥ 500 nM | ≥ 5000 nM | – |
| CNCCN(C)Cc1ncccc1C1CCN(c2ccccn2)CC1 [P216] | < 50 nM | 1000 to 5000 nM | – |
| CNCCN(C)Cc1ncccc1C1CCN(c2cccc(C(=O)O)c2)CC1 [P285] | ≥ 500 nM | ≥ 5000 nM | – |
| CNCCN(C)Cc1ncccc1C1CCN(c2cccc(F)c2)CC1 [P102] | < 50 nM | < 1000 nM | – |
| CNCCN(C)Cc1cc(F)ccc1[C@H]1CC[C@@H](c2cccc(C)c2)CC1 [P006] | < 50 nM | 1000 to 5000 nM | – |
| CNCCN(C)Cc1cc(F)ccc1C1CCN(c2cccc(C)c2)CC1 [P020] | < 50 nM | < 1000 nM | – |
| CNCCN(C)Cc1ncccc1C1CCN(c2ccc(C(=O)NC)cc2)CC1 [P255] | < 50 nM | 1000 to 5000 nM | – |
| CNCCN(C)Cc1nc(C)ccc1N1CCc2ccccc2CC1 [P109] | < 50 nM | < 1000 nM | – |
| CNCCN(C)Cc1ncccc1C1CCN(c2cccc(CN3CCCC3)c2)CC1 [P071] | < 50 nM | 1000 to 5000 nM | – |
| CNCCN(C)Cc1nc(C)ccc1C1CCc2cc(F)c(F)cc2CC1 [P036] | < 50 nM | < 1000 nM | – |
| CNCCN(C)Cc1ccc2c(c1C1CCN(c3cccc(C)c3)CC1)CC(=O)N2 [P180] | < 50 nM | < 1000 nM | – |
| CNCCN(C)Cc1ncccc1N1CCCC(OC)CC1 (stereo not shown) [P233] | < 50 nM | ≥ 5000 nM | – |
| CCC1CCN(c2ccccc2CN(C)CCNC)CC1 [P031] | < 50 nM | 1000 to 5000 nM | – |
| CNCCN(C)Cc1ncccc1N1CCC(OC(C)C)CC1 [P224] | < 50 nM | 1000 to 5000 nM | – |
| CNCCN(C)Cc1ccc(CC(N)=O)cc1C1CCN(c2cccc(C)c2)CC1 [P195] | < 50 nM | < 1000 nM | – |
| CNCCN(C)Cc1ncccc1N1CCCCCC1 [P145] | < 50 nM | 1000 to 5000 nM | – |
| CNCCN(C)Cc1ncccc1N1CCCc2ccccc21 [P128] | ≥ 500 nM | ≥ 5000 nM | – |
| CNCCN(C)Cc1ncccc1C1CCN(CC(F)(F)F)CC1 [P120] | < 50 nM | 1000 to 5000 nM | – |

| SMILES | IC50 (PRMT1) | IC50 (Toledo cells) | EC30 (MMA in RKO cells) |
| --- | --- | --- | --- |
| CCOCC1CCCN(c2cccnc2CN(C)CCNC)C1 (stereo not shown) [P217] | 50 to 500 nM | 1000 to 5000 nM | – |
| CNCCN(C)Cc1ccc(N(C)C)nc1C1CCN(c2cccc(C)c2)CC1 [P098] | < 50 nM | < 1000 nM | – |
| CNCCN(C)Cc1ncccc1C1CCN(c2ccnc(N)n2)CC1 [P326] | < 50 nM | 1000 to 5000 nM | – |
| CNCCN(C)Cc1ccc(C)nc1N1CCN(c2cccc(C)c2)CC1 [P116] | < 50 nM | 1000 to 5000 nM | – |
| CNCCN(C)Cc1ccccc1N1CCC(N(C)C)CC1 [P035] | 50 to 500 nM | ≥ 5000 nM | – |
| CCOCC1(COCC)CCN(c2c(Br)cccc2CN(C)CCNC)CC1 [P123] | < 50 nM | 1000 to 5000 nM | – |
| CNCCN(C)Cc1ncccc1N1CC[C@H](OC)[C@H](OC)CC1 [P281] | 50 to 500 nM | ≥ 5000 nM | – |
| CNCCN(C)Cc1ncccc1C1CCN(Cc2ccccc2)CC1 [P090] | < 50 nM | < 1000 nM | – |
| CNCCN(C)Cc1ccc(C)nc1C1CCc2cc(F)c(F)cc2CC1 [P038] | < 50 nM | < 1000 nM | – |
| CNCCN(C)Cc1ccc2[nH]c(C)nc2c1C1CCN(c2cccc(C)c2)CC1 [P176] | < 50 nM | < 1000 nM | – |
| CNCCN(C)Cc1ncccc1C1CCN(c2cccc(CN(C)C)c2)CC1 [P092] | < 50 nM | < 1000 nM | – |
| CCOCC1(COCC)CC=C(c2c(C)cccc2CN(C)CCNC)CC1 [P111] | < 50 nM | < 1000 nM | – |
| CCOC[C@H]1CC[C@H](c2cccnc2CN(C)CCNC)CC1 [P173] | < 50 nM | < 1000 nM | – |
| CNCCN(C)Cc1ncccc1N1CCc2nc(N(C)C)nc(C)c2CC1 [P272] | 50 to 500 nM | 1000 to 5000 nM | – |
| CNCCN(C)Cc1ncccc1C1CCN(c2nc(C)cc(N3CCCC3)n2)CC1 [P242] | < 50 nM | < 1000 nM | – |
| CNCCN(C)Cc1ncccc1C1CCN(c2nccc(C)n2)CC1 [P278] | < 50 nM | 1000 to 5000 nM | – |
| CNCCN(C)Cc1ccc(C)nc1C1CCN(c2cccc(C(F)F)c2)CC1 [P061] | < 50 nM | < 1000 nM | – |
| CNCCN(C)Cc1ncccc1C1CCN(c2ccc3c(c2)CCO3)CC1 [P163] | < 50 nM | < 1000 nM | – |
| CCc1cccc(N2CCC(c3cc(F)ccc3CN(C)CCNC)CC2)c1 [P013] | < 50 nM | 1000 to 5000 nM | – |
